{"source": "patent US11981666B2", "about": "“GLP-1 receptor agonist and composition and use thereof” (HANGZHOU ZHONGMEIHUADONG PHARMACEUTICAL CO., LTD., priority 2021, dated 2024)", "key": {"Human GLP-1R": {"biological_target": "T1, Human GLP-1R (Homo sapiens, UniProt P43220)", "T1 construct": "expressed in transfected cells", "T1 sequence (P43220 24-463)": "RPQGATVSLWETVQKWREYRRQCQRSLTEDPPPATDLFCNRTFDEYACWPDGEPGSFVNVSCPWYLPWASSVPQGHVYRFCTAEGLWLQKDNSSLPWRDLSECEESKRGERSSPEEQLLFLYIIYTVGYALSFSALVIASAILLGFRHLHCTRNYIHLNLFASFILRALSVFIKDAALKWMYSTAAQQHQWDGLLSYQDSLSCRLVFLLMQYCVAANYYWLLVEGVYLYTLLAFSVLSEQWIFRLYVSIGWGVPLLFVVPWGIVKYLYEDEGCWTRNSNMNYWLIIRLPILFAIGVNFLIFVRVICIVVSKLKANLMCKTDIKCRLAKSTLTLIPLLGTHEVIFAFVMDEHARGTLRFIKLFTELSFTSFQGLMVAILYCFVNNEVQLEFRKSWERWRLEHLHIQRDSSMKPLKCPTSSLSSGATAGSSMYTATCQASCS", "experiment": "GLP-1R agonistic activity assay (HTRF cAMP, 293A GFP-GLP-1R cells)", "assay_type": "cell-based", "conditions": "cAMP level, geometric mean", "from_the_text": "The method was a competitive immunoassay."}, "hERG potassium channels": {"biological_target": "T2, hERG potassium channels (Homo sapiens, UniProt Q12809)", "T2 construct": "expressed in transfected cells; host or cells: HEK-293-hERG cells", "T2 sequence (Q12809 whole entry)": "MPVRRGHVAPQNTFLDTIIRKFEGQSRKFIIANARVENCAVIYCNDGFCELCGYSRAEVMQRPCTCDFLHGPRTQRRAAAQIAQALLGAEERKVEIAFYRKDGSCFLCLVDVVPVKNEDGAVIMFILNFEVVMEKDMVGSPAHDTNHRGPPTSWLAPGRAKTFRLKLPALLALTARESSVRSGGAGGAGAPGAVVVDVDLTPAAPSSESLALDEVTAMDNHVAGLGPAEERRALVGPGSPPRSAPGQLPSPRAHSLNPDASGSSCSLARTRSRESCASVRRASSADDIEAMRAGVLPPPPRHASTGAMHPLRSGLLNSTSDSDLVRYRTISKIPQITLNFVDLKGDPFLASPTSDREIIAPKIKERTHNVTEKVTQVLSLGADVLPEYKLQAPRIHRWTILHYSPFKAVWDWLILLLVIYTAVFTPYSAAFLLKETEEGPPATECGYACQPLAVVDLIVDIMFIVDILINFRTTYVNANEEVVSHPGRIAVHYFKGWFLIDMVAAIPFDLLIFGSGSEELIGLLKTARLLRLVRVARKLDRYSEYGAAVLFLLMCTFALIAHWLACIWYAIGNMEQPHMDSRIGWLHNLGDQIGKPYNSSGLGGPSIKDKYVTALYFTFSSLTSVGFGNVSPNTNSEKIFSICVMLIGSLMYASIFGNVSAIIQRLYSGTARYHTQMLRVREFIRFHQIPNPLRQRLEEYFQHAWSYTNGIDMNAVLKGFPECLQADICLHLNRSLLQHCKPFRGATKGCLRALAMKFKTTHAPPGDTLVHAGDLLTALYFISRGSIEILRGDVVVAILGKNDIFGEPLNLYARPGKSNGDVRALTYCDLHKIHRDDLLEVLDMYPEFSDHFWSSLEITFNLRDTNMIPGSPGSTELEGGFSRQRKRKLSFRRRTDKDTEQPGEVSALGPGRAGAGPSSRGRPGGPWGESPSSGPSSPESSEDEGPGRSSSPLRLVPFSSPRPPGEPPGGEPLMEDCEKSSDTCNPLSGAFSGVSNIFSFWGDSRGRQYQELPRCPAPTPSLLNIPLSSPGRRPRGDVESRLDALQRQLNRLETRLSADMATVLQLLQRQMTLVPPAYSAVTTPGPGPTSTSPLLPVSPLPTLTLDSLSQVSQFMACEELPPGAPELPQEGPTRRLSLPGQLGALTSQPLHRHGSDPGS", "experiment": "Test for inhibition of hERG potassium channels (whole-cell patch clamp, HEK-293-hERG cells)", "assay_type": "cell-based", "conditions": "for hERG (IR): inhibition rate of tail current", "from_the_text": "Positive control: Amitriptyline hydrochloride or Terfenadine"}, "[1]": {"experiment": "Toxicological experiment in mice, 14-day repeated oral gavage (toxicokinetic study)", "assay_type": "in vivo, mouse", "conditions": "ICR, mouse, po, 200 mg/kg, Day 14; for AUC(0-t): plasma", "experimental": "(§1) Experimental method: 212 ICR mice (SPF grade), half male and half female. Animals in groups 1-5 were used for toxicity study, with 10 male and 10 female animals in each group; and animals in groups 6-9 were used for toxicokinetic study, with 14 male and 14 female animals in each group (2 of them were spare animals). […] Animals in Groups 1-9 were administered orally once a day for 14 consecutive days."}, "ICR mice [2]": {"tested_on": "ICR mice", "experiment": "Toxicological experiment in mice, 14-day repeated oral gavage (toxicokinetic study)", "assay_type": "in vivo, mouse", "conditions": "toxicokinetic study, female animals, 200 mg/kg oral once a day for 14 days", "experimental": "as §1"}, "[3]": {"experiment": "Pharmacokinetic experiment in cynomolgus monkeys", "assay_type": "in vivo, cynomolgus monkey", "conditions": "for Vd: read-out: Vss; for F: oral 20 mg/kg vs intravenous 2 mg/kg", "experimental": "Experimental objective: To evaluate the pharmacokinetic profile of compound 1 and compare it with compound 20 (control compound).\nExperimental method: 6 male Non-juvenile cynomolgus monkeys, 4˜5 kg, were purchased from Huazheng Experimental Animal Center. Group IV was administered intravenously at a dose of 2 mg/kg (5 mL/kg) (n=3), and the group PO was administered orally at a dose of 20 mg/kg (10 mL/kg) (n=3). Approximately 500 μL blood was collected from cephalic vein and saphenous vein at each experimental time point, and centrifuged at 2,000 g for 5 min (4° C.) within 15 min after sampling for subsequent analysis."}, "[4]": {"experiment": "Caco-2 cell transport experiment", "assay_type": "in vitro ADME", "conditions": "human", "experimental": "Caco-2 cells, 77th passage; HBSS, Lot: G210713; ACN+IS (tolbutamide 200 ng/mL); Caco-2 was inoculated on polyethylene (PET) in a 96-well Falcon plate at 2×10^5 cells/cm^2 until a confluent cell monolayer was formed on day 21-28. The culture medium was changed every 3-4 days. The test compound was diluted to a concentration of 10 uM with a transport buffer of 10 mM stock solution (HBSS without BSA) and applied to the apical side or the basolateral side of the cell monolayer. Incubation was carried out at 37° C., 5% CO2, and 95% relative humidity for 120 minutes, and the permeability of the test compound from the A to B direction or the B to A direction was determined in duplicate. The efflux ratio of each compound was determined. Test and reference compounds were quantitated by LC-MS/MS analysis based on the analyte/IS peak area ratio. […] [table]"}, "[5]": {"experiment": "Metabolic stability in (human) liver microsomes", "assay_type": "in vitro ADME", "conditions": "pH 7.4, test concentration 1 μM", "quoted_text": "3×NADPH stock solution (6 mM, 5 mg/mL) was prepared by dissolving NADPH in the buffer solution; 4. 30 μL of 1.5 μM additive solution containing 0.75 mg/mL microsomal solution was distributed to the plates designated for different time points (0, 5, 15, 30, 45 minutes); 5. at 0 min, 150 μL of ACN containing IS was added to the wells of the plate, followed by addition of 15 μL of NADPH stock solution (6 mM, step 3); 6. all other plates were pre-incubated at 37° C. for 5 minutes; 7. adding 15 μL of NADPH stock solution to the plate to start the reaction and timing; 8. 150 μL of ACN containing IS was added to the wells of the corresponding plates to stop the reaction at 5 min, 15 min, 30 min and 45 min, respectively; 9. after quenching, the plates were shaken on a shaker for 10 minutes (600 rpm/min) and then centrifuged at 6000 rpm for 15 minutes; 10. 80 μL of supernatant was transferred from each well to a 96-well sample plate containing 140 μL water for LC/MS analysis.\nDetection method: LC-MS/MS-11 (8050), internal standard: tolbutamide; MS conditions: positive ion ESI for testosterone and test compound, and negative ion ESI for tolbutamide; Mobile phases: mobile phase A is 0.1% FA in water, and mobile phase B is 0.1% FA in ACN; Column and specification: ACQUITY UPLC HSS T3 1.8 um 2.1*50 mm."}, "ICR mice [6]": {"tested_on": "ICR mice", "experiment": "Toxicological experiment in mice, 14-day repeated oral gavage (toxicity study)", "assay_type": "in vivo", "experimental": "as §1"}, "[7]": {"conditions": "intravenous 2 mg/kg, male, individual animals #1, #2, #3, 2 mg/kg"}, "[8]": {"conditions": "male, cynomolgus monkey, plasma, iv, 2 mg/kg, intravenous 2 mg/kg, Mean (n=3)"}, "[9]": {"conditions": "male, cynomolgus monkey, plasma, iv, 2 mg/kg, intravenous 2 mg/kg, individual animals #1, #2, #3"}, "[10]": {"conditions": "male, cynomolgus monkey, plasma, po, 20 mg/kg, oral 20 mg/kg, Mean (n=3)"}, "[11]": {"conditions": "oral 20 mg/kg, male, individual animals #4, #5, #6, 20 mg/kg"}}, "note": "Where “and” joins values, the source holds several entries; their conditions need not be identical. Equal entries are not always repeated. Where two headings read alike, the source gives them in different places.", "data": [{"smiles": "O=C(O)c1ccc2nc(CN3CCC(c4cccc(OCc5ccc(C6COC6)cc5F)n4)CC3)n(C[C@@H]3CCO3)c2c1", "note": "[Compound 1, (S)-2-((4-(6-((2-fluoro-4-(oxetan-3-yl)benzyl)oxy)pyridin-2-yl)piperidin-1-yl)methyl)-1-(oxetan-2-ylmethyl)-1H-benzo[d]imidazole-6-carboxylic acid]", "values": [{"measurement": "EC50", "setting": "Human GLP-1R", "value": 30, "unit": "pM"}, {"measurement": "IC50", "setting": "hERG potassium channels", "value": 15.9, "unit": "µM"}, {"measurement": "hERG inhibitory activity (conclusion)", "setting": "hERG potassium channels", "value": "Did not Exhibit hERG Inhibitory Activity"}, {"measurement": "hERG (IR)", "setting": "hERG potassium channels; 1 μM", "value": "3.75% (1 μM)"}, {"measurement": "hERG (IR)", "setting": "hERG potassium channels; 10 μM", "value": "40.7 (10 μM) %"}, {"measurement": "Cmax", "setting": "[1]; plasma of female animals", "value": 117, "unit": "µg/mL"}, {"measurement": "Cmax", "setting": "[1]; plasma of male animals", "value": 81, "unit": "µg/mL"}, {"measurement": "AUC(0-t)", "setting": "[1]; female, plasma of female animals, read-out: AUC(0-t) (second value listed)", "value": 271, "unit": "µg·h/mL"}, {"measurement": "AUC(0-t)", "setting": "[1]; female, plasma of female animals, read-out: AUC(0-t), the systemic exposure (first value listed)", "value": 291, "unit": "µg·h/mL"}, {"measurement": "AUC(0-t)", "setting": "[1]; male, plasma of male animals, read-out: AUC(0-t) (second value listed)", "value": 200, "unit": "µg·h/mL"}, {"measurement": "AUC(0-t)", "setting": "[1]; male, plasma of male animals, read-out: AUC(0-t), the systemic exposure (first value listed)", "value": 218, "unit": "µg·h/mL"}, {"measurement": "animals found dead", "setting": "ICR mice [2]", "value": "1/14"}, {"measurement": "pharmacokinetic profile, orally administered (conclusion)", "setting": "[3]; compared with control compound 20", "value": "significantly better than that of the control compound 20"}, {"measurement": "AUCINF", "setting": "[3]; [7]", "value": "14.9 hr * μM and 13.0 hr * μM and 8749 hr * ng/ml and 7622 hr * ng/ml"}, {"measurement": "AUClast", "setting": "[3]; [7]", "value": "14.9 hr * μM and 13.0 hr * μM and 15215 hr * ng/ml and 8739 hr * ng/ml and 7607 hr * ng/ml"}, {"measurement": "CL", "setting": "[3]; [7]", "value": "2.19 mL/min/kg and 3.81 mL/min/kg and 4.37 mL/min/kg and 2.18 mL/min/kg and 3.82 mL/min/kg"}, {"measurement": "MRTINF", "setting": "[3]; [7]", "value": "0.247 h and 0.242 h"}, {"measurement": "T1/2", "setting": "[3]; [7]", "value": "1.46 h and 1.50 h"}, {"measurement": "Vss", "setting": "[3]; [7]", "value": "0.0564 L/kg and 0.0635 L/kg"}, {"measurement": "AUC(0-inf)", "setting": "[3]; [8]", "value": "18 µM·h and 10500 ng·h/mL"}, {"measurement": "AUC(0-t)", "setting": "[3]; [8]", "value": "17.9 µM·h and 10500 ng·h/mL"}, {"measurement": "MRT inf", "setting": "[3]; [8]", "value": 0.292, "unit": "h"}, {"measurement": "clearance", "setting": "[3]; [8]", "value": 3.46, "unit": "mL/min/kg"}, {"measurement": "half-life", "setting": "[3]; [8]", "value": 1.39, "unit": "h"}, {"measurement": "AUC(0-inf)", "setting": "[3]; [9]", "value": "26 µM·h and 15200 ng·h/mL"}, {"measurement": "AUC(0-t)", "setting": "[3]; [9]", "value": 26, "unit": "µM·h"}, {"measurement": "MRT inf", "setting": "[3]; [9]", "value": 0.387, "unit": "h"}, {"measurement": "half-life", "setting": "[3]; [9]", "value": 1.23, "unit": "h"}, {"measurement": "Vd", "setting": "[3]; male, cynomolgus monkey, plasma, iv, 2 mg/kg, intravenous 2 mg/kg, male, Mean (n=3)", "value": 0.0569, "unit": "L/kg"}, {"measurement": "Vd", "setting": "[3]; male, cynomolgus monkey, plasma, iv, 2 mg/kg, intravenous 2 mg/kg, male, individual animals #1, #2, #3", "value": 0.0508, "unit": "L/kg"}, {"measurement": "AUC(0-inf)", "setting": "[3]; [10]", "value": "61.8 µM·h and 36200 ng·h/mL"}, {"measurement": "AUC(0-t)", "setting": "[3]; [10]", "value": "34500 ng·h/mL and 58.9 µM·h"}, {"measurement": "MRT inf", "setting": "[3]; [10]", "value": 6.71, "unit": "h"}, {"measurement": "half-life", "setting": "[3]; [10]", "value": 5.32, "unit": "h"}, {"measurement": "Cmax", "setting": "[3]; male, cynomolgus monkey, plasma, po, 20 mg/kg, oral 20 mg/kg, male, Mean (n=3), read-out: Cmax", "value": "12700 ng/mL and 21.6 µM"}, {"measurement": "Tmax", "setting": "[3]; male, cynomolgus monkey, plasma, po, 20 mg/kg, oral 20 mg/kg, male, Mean (n=3), read-out: Tmax", "value": 1.67, "unit": "h"}, {"measurement": "Tmax", "setting": "[3]; male, cynomolgus monkey, plasma, po, 20 mg/kg, oral 20 mg/kg, male, individual animals #4, #5, #6, read-out: Tmax", "value": 2, "unit": "h"}, {"measurement": "oral bioavailability (conclusion)", "setting": "[3]; oral 20 mg/kg", "value": "high oral bioavailability"}, {"measurement": "F", "setting": "[3]; male, Mean (n=3)", "value": 32.8, "unit": "%"}, {"measurement": "F", "setting": "[3]; male, individual animals #4, #5, #6", "value": "40.5% and 16.2% and 41.8%"}, {"measurement": "AUCINF", "setting": "[3]; [11]", "value": "72.8 hr * μM and 37.3 hr * μM and 75.2 hr * μM and 42676 hr * ng/ml and 21853 hr * ng/ml and 44083 hr * ng/ml"}, {"measurement": "AUClast", "setting": "[3]; [11]", "value": "72.6 hr * μM and 29.0 hr * μM and 75.1 hr * μM and 42563 hr * ng/ml and 17014 hr * ng/ml and 44038 hr * ng/ml"}, {"measurement": "Cmax", "setting": "[3]; [11]", "value": "12500 ng/mL and 2270 ng/mL and 23200 ng/mL"}, {"measurement": "MRTINF", "setting": "[3]; [11]", "value": "3.15 h and 14.5 h and 2.47 h"}, {"measurement": "T1/2", "setting": "[3]; [11]", "value": "3.03 h and 10.4 h and 2.52 h"}, {"measurement": "Tmax", "setting": "[3]; [11]", "value": 1.00, "unit": "h"}, {"measurement": "efflux ratio at 120 min, 10 uM", "setting": "[4]; Papp(BA)/Papp(AB)", "value": 5.26}, {"measurement": "Papp A→B at 120 min, 10 uM", "setting": "[4]; apical to basolateral, 10 uM, 120 minutes", "value": 3.14, "unit": "×10⁻⁶ cm/s"}, {"measurement": "Papp B→A at 120 min, 10 uM", "setting": "[4]; basolateral to apical, 10 uM, 120 minutes", "value": 16.5, "unit": "×10⁻⁶ cm/s"}, {"measurement": "half-life at 1 μM", "setting": "[5]", "value": 2.17, "unit": "h"}, {"measurement": "non-toxic response dose level", "setting": "ICR mice [6]; ICR mice, gavage once a day for 14 consecutive days", "value": 200, "unit": "mg/kg"}, {"measurement": "toxicological effects on experimental animals (conclusion)", "setting": "ICR mice [6]; at the studied dose (200 mg/kg)", "value": "no significant toxicological effects"}, {"measurement": "biochemical analysis of serum", "setting": "ICR mice [6]; compared to vehicle control", "value": "no significant toxicological changes"}, {"measurement": "clinical observation", "setting": "ICR mice [6]; toxicity study, 100 mg/kg, presumed not related to the test compound", "value": "occasionally showed abnormal gait, decreased activity, piloerection and traumatic abnormalities"}]}]}
